Reference: US8952024B2, “Herbicidal pyrimidone derivatives” (E I du Pont de Nemours and Company, priority 2009, dated 2015)

How the values were obtained:
Format in all cases: in vivo
[1] = system: blackgrass (Alopecurus myosuroides); test: Test B pre-/postemergence plant response
Procedure, shortened: (§1)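 Visual ratings on a 0–100 scale (100 = complete control) were made versus untreated controls 13–15 days after treatment in a greenhouse. Compounds in surfactant-containing non-phytotoxic solvent were applied preemergence to seeds in loam–sand blend or postemergence to 1- to 4-leaf plants (2–18 cm).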

[2] = system: cocklebur (Xanthium strumarium); test: Test B pre-/postemergence plant response
Procedure, shortened: as §1

[3] = system: kochia (Kochia scoparia); test: Test B pre-/postemergence plant response
Procedure, shortened: as §1

[4] = system: velvetleaf (Abutilon theophrasti); test: Test B pre-/postemergence plant response
Procedure, shortened: as §1

[5] = system: Surinam grass (Brachiaria decumbens); test: Test B pre-/postemergence plant response
Procedure, shortened: as §1

[6] = system: wild oat (Avena fatua); test: Test B pre-/postemergence plant response
Procedure, shortened: as §1

[7] = system: wheat (Triticum aestivum); test: Test B pre-/postemergence plant response
Procedure, shortened: as §1

[8] = system: soybean (Glycine max); test: Test B pre-/postemergence plant response
Procedure, shortened: as §1

[9] = system: lambsquarters (Chenopodium album); test: Test B pre-/postemergence plant response
Procedure, shortened: as §1

[10] = system: pigweed (Amaranthus retroflexus); test: Test B pre-/postemergence plant response
Procedure, shortened: as §1

[11] = system: chickweed (Stellaria media); test: Test B postemergence plant response
Procedure, shortened: (§2)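 Plants at the 1- to 4-leaf stage (2 to 18 cm tall), grown in pots of peat moss/vermiculite medium with wetting agent and starter nutrients, received postemergence applications of test chemicals. After 13 to 15 days in a greenhouse, injury was rated visually against untreated controls on a 0 (no effect) to 100 (complete control) scale.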

[12] = system: windgrass (Apera spica-venti); test: Test B postemergence plant response
Procedure, shortened: as §2

[13] = system: canarygrass (Phalaris minor); test: Test B postemergence plant response
Procedure, shortened: as §2

[14] = 31 g ai/ha, postemergence, scale 0 to 100, 0 is no effect, 100 is complete control
[15] = 62 g ai/ha, postemergence, 0 is no effect, 100 is complete control, 13 to 15 days
[16] = Postemergence, 125 g ai/ha, visual rating after 13 to 15 days, scale 0 (no effect) to 100 (complete control)
[17] = Postemergence, 250 g ai/ha, scale 0 to 100 (0 no effect, 100 complete control)

SMILES: O=C1CCCC(O)=C1C(=O)c1cnc(-c2ccccc2Br)n(-c2ccccc2)c1=O [Compound 71]
- Plant response rating, Blackgrass [1, 14]: 0
- Blackgrass plant response rating (0 to 100 scale) [1, 15]: 0
- Plant response rating, Blackgrass [1, 16]: 0
- Plant response rating, Blackgrass [1, 17]: 5
- Plant response rating, Cocklebur [2, 14]: 65
- Cocklebur plant response rating (0 to 100 scale) [2, 15]: 65
- Plant response rating, Cocklebur [2, 16]: 95
- Plant response rating, Cocklebur [2, 17]: 95
- Plant response rating, Kochia [3, 14]: 0
- Kochia plant response rating (0 to 100 scale) [3, 15]: 0
- Plant response rating, Kochia [3, 16]: 25
- Plant response rating, Kochia [3, 17]: 65
- Plant response rating, Velvetleaf [4, 14]: 75
- Velvetleaf plant response rating (0 to 100 scale) [4, 15]: 85
- Plant response rating, Velvetleaf [4, 16]: 90
- Plant response rating, Velvetleaf [4, 17]: 95
- Plant response rating, Surinam Grass [5, 14]: 50
- Surinam Grass plant response rating (0 to 100 scale) [5, 15]: 55
- Plant response rating, Surinam Grass [5, 16]: 65
- Plant response rating, Surinam Grass [5, 17]: 85
- Plant response rating, Oat, Wild [6, 14]: 0
- Oat, Wild plant response rating (0 to 100 scale) [6, 15]: 0
- Plant response rating, Oat, Wild [6, 16]: 0
- Plant response rating, Oat, Wild [6, 17]: 5
- Plant response rating, Wheat [7, 14]: 0
- Wheat plant response rating (0 to 100 scale) [7, 15]: 0
- Plant response rating, Wheat [7, 16]: 0
- Plant response rating, Wheat [7, 17]: 5
- Plant response rating, Soybean [8, 14]: 65
- Soybean plant response rating (0 to 100 scale) [8, 15]: 70
- Plant response rating, Soybean [8, 16]: 95
- Plant response rating, Soybean [8, 17]: 98
- Plant response rating, Lambsquarters [9, 14]: 75
- Lambsquarters plant response rating (0 to 100 scale) [9, 15]: 85
- Plant response rating, Lambsquarters [9, 16]: 90
- Plant response rating, Lambsquarters [9, 17]: 98
- Plant response rating, Pigweed [10, 14]: 85
- Pigweed plant response rating (0 to 100 scale) [10, 15]: 85
- Plant response rating, Pigweed [10, 16]: 98
- Plant response rating, Pigweed [10, 17]: 100
- Plant response rating, Chickweed [11, 14]: 75
- Chickweed plant response rating (0 to 100 scale) [11, 15]: 90
- Plant response rating, Chickweed [11, 16]: 95
- Plant response rating, Chickweed [11, 17]: 98
- Plant response rating, Windgrass [12, 14]: 5
- Windgrass plant response rating (0 to 100 scale) [12, 15]: 10
- Plant response rating, Windgrass [12, 16]: 45
- Plant response rating, Windgrass [12, 17]: 60
- Plant response rating, Canarygrass [13, 14]: 0
- Canarygrass plant response rating (0 to 100 scale) [13, 15]: 5
- Plant response rating, Canarygrass [13, 16]: 5
- Plant response rating, Canarygrass [13, 17]: 20
